Read-outs that look alike come from different tables or passages of the source.
How the values were obtained:
[1] = system: ECFC/ADSC co-culture cell nuclei number; settings: for IC50: read-out: VEGF_ADSC\ECFC Angio Hoechst NucArea summarized IC50
[2] = system: endothelial tube formation in co-cultures of ECFCs and ADSCs treated with VEGF; assay: cells; type: cell-based, human; settings: for IC50: read-out: VEGF_ADSC\ECFC Angio CD31 TubeArea summarized IC50
[3] = system: HeLa cells; assay: cells; type: cell-based;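 on Hela CellCycMod PI 4N summarized IC50: value tracks stimulation of 4N DNA content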
[4] = system: SNU-C1; assay: cells; type: cell-based; settings: assay number 30; basal; read-out: Basal_Viability ATP SNU-C1 summarized IC50
[5] = system: DLD-1; assay: cells; type: cell-based; settings: assay number 23; basal
[6] = system: HCT116; assay: cells; type: cell-based; settings: assay number 25; basal
[7] = system: SW480; assay: cells; type: cell-based; settings: assay number 24; basal
[8] = system: Colo320; assay: cells; type: cell-based; settings: assay number 27; basal
[9] = assay number 14, 2N, read-out: Hela CellCycMod PI 2N summarized IC50
[10] = assay number 15, S phase, read-out: Hela CellCycMod PI S Phase summarized IC50
[11] = assay number 16, 4N, read-out: Hela CellCycMod PI 4N summarized IC50
[12] = assay number 17, MI, read-out: Hela CellCycMod PI MI summarized IC50
[13] = assay number 18, cell number, read-out: Hela CellCycMod PI Cell Number summarized IC50

## CCCCCCC[N+](CC)(CC)CCCCc1ccc(Cl)cc1.Cc1ccc(S(=O)(=O)[O-])cc1 [NCGC00168464-04]
[1]
  IC50/EC50, VEGF_ADSC\ECFC Angio Hoechst NucArea (assay number 3): > 10 µM
[2]
  IC50/EC50, VEGF_ADSC\ECFC Angio CD31 TubeArea (assay number 2): 6.3375 µM
[3]; 2N
  IC50/EC50, Hela CellCycMod PI 2N (assay number 14): > 10 µM
[3]; 4N
  IC50/EC50, Hela CellCycMod PI 4N (assay number 16): > 10 µM
[3]
  IC50/EC50, Hela CellCycMod PI Cell Number (assay number 18): > 10 µM
[3]; MI
  IC50/EC50, Hela CellCycMod PI MI (assay number 17): > 10 µM

## CO[C@@H]1[C@@H](OC)[C@H](C)[C@@](O)(CC(=O)O)O[C@H]1[C@H](C)[C@H]1O[C@@]2(CC[C@@](C)([C@H]3CC[C@@](C)([C@@H]4O[C@@H]([C@H]5O[C@](C)(O)[C@H](C)C[C@@H]5C)C[C@@H]4OC4C[C@H](OC)[C@@H](OC)[C@H](C)O4)O3)O2)C[C@H](O)[C@H]1C.N (stereo partly drawn) [NCGC00263563-01]
[1]
  VEGF_ADSC\ECFC Angio Hoechst NucArea IC50/EC50: 2.568 µM
[2]
  VEGF_ADSC\ECFC Angio CD31 TubeArea IC50/EC50: 0.2517 µM
[3]; assay number 14, 2N
  Hela CellCycMod PI 2N IC50/EC50: > 10 µM
[3]; assay number 15, S phase
  Hela CellCycMod PI S Phase IC50/EC50: > 10 µM
[3]; assay number 16, 4N
  Hela CellCycMod PI 4N IC50/EC50: > 10 µM
[3]; assay number 17, MI
  Hela CellCycMod PI MI IC50/EC50: > 10 µM
[3]; assay number 18, cell number
  Hela CellCycMod PI Cell Number IC50/EC50: 2.751 µM

## CN(Cc1cnc2nc(N)nc(N)c2n1)c1ccc(C(=O)N[C@@H](CCC(=O)O)C(=O)O)cc1 [NCGC00025060-15]
[1]
  IC50: > 10 µM
[2]
  IC50: > 10 µM
[3]; [9]
  IC50: > 10 µM
[3]; [10]
  IC50: > 10 µM
[3]; [11]
  IC50: > 10 µM
[3]; [12]
  IC50: > 10 µM
[3]; [13]
  IC50: > 10 µM
[4]
  IC50: > 20 µM

## c1cnc2cc3c(cc2n1)C1CNCC3C1 [NCGC00247735-02]
[5]
  Basal_Viability ATP DLD-1 IC50/EC50: > 6.6667 µM
[6]
  Basal_Viability ATP HCT116 IC50/EC50: > 20 µM
[7]
  Basal_Viability ATP SW480 IC50/EC50: > 6.6667 µM
[8]
  Basal_Viability ATP Colo 320 IC50/EC50: > 20 µM

## CC(=O)Oc1ccccc1C(=O)Nc1ncc([N+](=O)[O-])s1 [NCGC00090774-05]
[1]
  VEGF_ADSC\ECFC Angio Hoechst NucArea IC50/EC50: > 10 µM
[2]
  VEGF_ADSC\ECFC Angio CD31 TubeArea IC50/EC50: 2.0612 µM
[3]; assay number 14, 2N
  Hela CellCycMod PI 2N IC50/EC50: > 10 µM
[3]; assay number 15, S phase
  Hela CellCycMod PI S Phase IC50/EC50: > 10 µM
[3]; assay number 16, 4N
  Hela CellCycMod PI 4N IC50/EC50: > 10 µM
[3]; assay number 17, MI
  Hela CellCycMod PI MI IC50/EC50: > 10 µM
[3]; assay number 18, cell number
  Hela CellCycMod PI Cell Number IC50/EC50: > 10 µM

## CCCCCCCCCCCC(=O)[O][Sn]([CH2]CCC)([CH2]CCC)[O]C(=O)CCCCCCCCCCC [NCGC00166115-02]
[1]
  IC50: > 10 µM
[2]
  IC50: 2.01 µM
[3]; [9]
  IC50: > 10 µM
[3]; [10]
  IC50: > 10 µM
[3]; [11]
  IC50: > 10 µM
[3]; [12]
  IC50: > 10 µM
[3]; [13]
  IC50: > 10 µM

## CC(=O)N(O)CCCCCNC(=O)CCC(=O)N(O)CCCCCNC(=O)CCC(=O)N(O)CCCCCN [NCGC00178802-06]
[1]
  IC50/EC50, VEGF_ADSC\ECFC Angio Hoechst NucArea (assay number 3): > 10 µM
[2]
  IC50/EC50, VEGF_ADSC\ECFC Angio CD31 TubeArea (assay number 2): 4.5338 µM
[3]; 2N
  IC50/EC50, Hela CellCycMod PI 2N (assay number 14): > 10 µM
[3]; 4N
  IC50/EC50, Hela CellCycMod PI 4N (assay number 16): > 10 µM
[3]
  IC50/EC50, Hela CellCycMod PI Cell Number (assay number 18): > 10 µM
[3]; MI
  IC50/EC50, Hela CellCycMod PI MI (assay number 17): > 10 µM
[3]; S Phase
  IC50/EC50, Hela CellCycMod PI S Phase (assay number 15): > 10 µM

## Nc1nc(F)nc2c1ncn2[C@@H]1O[C@H](CO)[C@@H](O)[C@@H]1O [NCGC00182047-03]
[1]
  VEGF_ADSC\ECFC Angio Hoechst NucArea IC50/EC50: > 10 µM
[2]
  VEGF_ADSC\ECFC Angio CD31 TubeArea IC50/EC50: 8.4496 µM
[3]; assay number 14, 2N
  Hela CellCycMod PI 2N IC50/EC50: > 10 µM
[3]; assay number 15, S phase
  Hela CellCycMod PI S Phase IC50/EC50: > 10 µM
[3]; assay number 16, 4N
  Hela CellCycMod PI 4N IC50/EC50: > 10 µM
[3]; assay number 17, MI
  Hela CellCycMod PI MI IC50/EC50: > 10 µM
[3]; assay number 18, cell number
  Hela CellCycMod PI Cell Number IC50/EC50: > 10 µM

## COc1ccc(Cc2nccc3cc(OC)c(OC)cc23)cc1OC [NCGC00015810-12]
[1]
  IC50: > 10 µM
[2]
  IC50: 7.8 µM
[3]; [9]
  IC50: > 10 µM
[3]; [11]
  IC50: > 10 µM
[3]; [12]
  IC50: > 10 µM
[3]; [13]
  IC50: > 10 µM

## COc1ccc(/C=C/C(=O)c2ccc(OC)cc2OC)cc1 [NCGC00160442-03]
[1]
  VEGF_ADSC\ECFC Angio Hoechst NucArea IC50/EC50: > 10 µM
[2]
  VEGF_ADSC\ECFC Angio CD31 TubeArea IC50/EC50: 6.6604 µM
[3]; assay number 14, 2N
  Hela CellCycMod PI 2N IC50/EC50: > 10 µM
[3]; assay number 16, 4N
  Hela CellCycMod PI 4N IC50/EC50: > 10 µM
[3]; assay number 17, MI
  Hela CellCycMod PI MI IC50/EC50: > 10 µM
[3]; assay number 18, cell number
  Hela CellCycMod PI Cell Number IC50/EC50: 0.7082 µM

## O=c1[nH]c(=O)n([C@H]2C[C@H](O)[C@@H](CO)O2)cc1Br [NCGC00090770-09]
[1]
  VEGF_ADSC\ECFC Angio Hoechst NucArea IC50/EC50: > 10 µM
[2]
  VEGF_ADSC\ECFC Angio CD31 TubeArea IC50/EC50: 3.8464 µM
[3]; assay number 14, 2N
  Hela CellCycMod PI 2N IC50/EC50: > 10 µM
[3]; assay number 15, S phase
  Hela CellCycMod PI S Phase IC50/EC50: > 10 µM
[3]; assay number 16, 4N
  Hela CellCycMod PI 4N IC50/EC50: > 10 µM
[3]; assay number 17, MI
  Hela CellCycMod PI MI IC50/EC50: > 10 µM
[3]; assay number 18, cell number
  Hela CellCycMod PI Cell Number IC50/EC50: > 10 µM
